Where “and” joins values, the source holds several entries; their conditions need not be identical. Equal values may be shown once. Where a name gives a salt, the structure may show the parent alone. Read-outs that look alike come from different tables or passages of the source.
How the values were obtained:
[1] = molecular target: T1, SARS-CoV-2 Mac1 (Severe acute respiratory syndrome coronavirus 2, UniProt P0DTD1); assay: biochemical; conditions: read-out: %inhibition
[2] = molecular target: T1, SARS-CoV-2 Mac1; assay: biochemical; conditions: for inhibition at 100 µM: read-out: %inhibition; for %inhibition: 100 µM, inhibitor
[3] = molecular target: human MacroD2 (Homo sapiens, UniProt A1Z1Q3); assay: ADPr-Glo luminescence ADP-ribosylhydrolase assay; type: biochemical
Chain of human MacroD2 (A1Z1Q3 whole entry): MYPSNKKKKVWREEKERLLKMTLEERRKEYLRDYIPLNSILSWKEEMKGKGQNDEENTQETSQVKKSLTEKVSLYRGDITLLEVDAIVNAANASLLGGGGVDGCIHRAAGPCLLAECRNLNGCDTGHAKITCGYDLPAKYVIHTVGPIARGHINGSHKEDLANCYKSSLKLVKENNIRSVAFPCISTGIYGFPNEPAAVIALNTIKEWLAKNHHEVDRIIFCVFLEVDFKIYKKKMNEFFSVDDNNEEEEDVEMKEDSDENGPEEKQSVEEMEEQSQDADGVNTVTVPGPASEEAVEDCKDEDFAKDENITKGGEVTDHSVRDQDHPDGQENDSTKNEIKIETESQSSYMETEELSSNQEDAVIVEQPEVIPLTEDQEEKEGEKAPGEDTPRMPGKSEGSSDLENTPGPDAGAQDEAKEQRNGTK

[4] = molecular target: T1, SARS-CoV-2 Mac1; assay: biochemical

Structure (SMILES)	inhibition at 100 µM [1] [%]	further results
Nc1nc(Cl)nc2c1ncn2[C@@H]1O[C@H](COP(=O)(O)OP(=O)(O)OP(=O)(O)O)[C@H](O)C1O (stereo partly drawn) [2-Chloroadenosine triphosphate tetrasodium]	57	
NNCc1cccc(O)c1 [3-Hydroxybenzylhydrazine dihydrochloride]	32	
Cc1cccc(C#Cc2ccccc2)n1 [6-Methyl-2-(phenylethynyl)pyridine hydrochloride]	45	
Oc1ncnc2[nH]ncc12 [Allopurinol]	37	inhibition at 100 µM [2]: 0%
O=C1c2c(O)ccc(O)c2C(=O)c2c(NCCNCCO)ccc(NCCNCCO)c21 [Mitoxantrone]	53	
O=C(Nc1cc(C(=O)Nc2ccc(S(=O)(=O)O)cc2S(=O)(=O)O)cc(C(=O)Nc2ccc(S(=O)(=O)O)cc2S(=O)(=O)O)c1)Nc1cc(C(=O)Nc2ccc(S(=O)(=O)O)cc2S(=O)(=O)O)cc(C(=O)Nc2ccc(S(=O)(=O)O)cc2S(=O)(=O)O)c1 [NF449 octasodium salt]	54	
COc1cc2c(cc1OC)[C@@H](c1ccccc1)CN(C)CC2 [R(-)-SCH-12679 maleate]	96	
Nc1c(S(=O)(=O)O)cc(Nc2ccc(Nc3nc(Cl)nc(Nc4cccc(S(=O)(=O)O)c4)n3)c(S(=O)(=O)O)c2)c2c1C(=O)c1ccccc1C2=O [Reactive Blue 2]	100	
Nc1nc(SCc2ccc([N+](=O)[O-])cc2)c2ncn([C@@H]3O[C@H](CO)[C@@H](O)[C@H]3O)c2n1 [S-(4-Nitrobenzyl)-6-thioguanosine]	35	
Cc1ccc(O)c(N=Nc2ccccc2)n1 [SIB 1757]	79	
Cc1ccc(C(=O)Nc2ccc(S(=O)(=O)O)c3cc(S(=O)(=O)O)cc(S(=O)(=O)O)c23)cc1NC(=O)c1cccc(NC(=O)Nc2cccc(C(=O)Nc3cc(C(=O)Nc4ccc(S(=O)(=O)O)c5cc(S(=O)(=O)O)cc(S(=O)(=O)O)c45)ccc3C)c2)c1 [Suramin hexasodium]	86	
N#CC(C#N)=Cc1ccc(O)c(O)c1 [Tyrphostin 23]	52	
N#C/C(=C\c1ccc(O)c(O)c1)C(=O)NCc1ccccc1 [Tyrphostin AG 490]	79	
N#C/C(=C\c1ccc(O)c(O)c1)C(=O)NCCCNC(=O)/C(C#N)=C/c1ccc(O)c(O)c1 [Tyrphostin AG 537]	54	
Cc1nc(Nc2ncc(C(=O)Nc3c(C)cccc3Cl)s2)cc(N2CCN(CCO)CC2)n1 [dasatinib]		IC50 [3]: > 2000 µM; %inhibition [2]: 66.44% and 68.55%; inhibition at 100 µM [2]: 78.6%; IC50 [4]: 37.5 to 57.5 µM
NNc1nnc(NN)c2ccccc12 [dihydralazine]		IC50 [3]: 500 to 1830 µM; IC50 [4]: 485 to 757 µM
CC[C@H](C)[C@H](N)C(=O)O [isoleucine]		inhibition at 100 µM [2]: 0%
COc1cc2nccc(Oc3ccc(NC(=O)NC4CC4)c(Cl)c3)c2cc1C(N)=O [lenvatinib Mesylate]		%inhibition [2]: 0%
O=C1[C@@H]2[C@H]3CC[C@H](C3)[C@@H]2C(=O)N1C[C@@H]1CCCC[C@H]1CN1CCN(c2nsc3ccccc23)CC1 [lurasidone]		inhibition at 100 µM [2]: 0%

From article doi:10.1101/2021.10.07.463234v2 (biorxiv, 2021)
